Measured values: ChEMBL document CHEMBL1124835, “Structure-activity relationships of antineoplastic agents in multidrug resistance” (J Med Chem, 1990)
Numbered stars: 1 amine (or outer) side, 2 acyl side, 3 side chain; on linkers, the order of the positions; unused ones are H or OH. Bridge positions count the residues as written; N and C are the ends. Square brackets hold non-standard residues; d marks the D form. Peptide text beside a SMILES is read from it. I, II: the chains in the order shown. Actinocin(1to9) = Cc1c2oc3c(C)ccc(C(=O)[*:2])c3nc-2c(C(=O)[*:1])c(N)c1=O; NMeV = CN[C@H](C(=O)O)C(C)C; Sar = CNCC(=O)O

Columns and labels:
[1] = system: L1210
Description: (§1) Cross resistance profile versus L1210/R71 cells.

[2] = physchem; conditions: octanol/water, pH 7.4
[3] = system: CHRC5 cell line; type: functional, Cricetulus griseus
Description: Effect on collateral sensitivity of CHRC5 cells to local anesthetics/steroids.

[4] = system: CHO
Description: (§2) Effect on cross resistance of CHO cells resistant to colchicine (CHRC5)

[5] = system: CCRF-CEM; experiment: Effect on cross resistance of CCRF-CEM cells resistant to vincristine.; type: functional, Homo sapiens
[6] = system: CHO; experiment: Effect on cross resistance of chinese hamster ovary CHO cells resistant to colchicine (CHRC5); type: functional, Cricetulus griseus
[7] = system: CHO; experiment: Cross resistance of chinese hamster cells resistant to actinomycin D as log of ratio of molar concentration of compound inducing 50% inhibition of growth in resistant and sensitive cells; type: functional, Cricetulus griseus
[8] = system: L1210; experiment: Cross resistance to the compound expressed as log of ratio of molar concentration of drug inducing 50% inhibition of growth in murine leukemia L1210/R71 and L1210/0 cells; type: functional, Mus musculus
[9] = system: L1210; conditions: Mus musculus
Description: as §1

[10] = system: CHO; conditions: Cricetulus griseus
Description: as §2

[11] = system: CHRC5 cell line
Description: Collateral sensitivity of CHRC5 cells to local anesthetics/steroids as log of ratio of molar concentration of drug inducing 50% growth inhibition in CHO AUXB1 cells to that of CHRC5 cells

[12] = system: L1210; experiment: Cross resistance to the compound expressed as as log of ratio of molar concentration of drug inducing 50% inhibition of growth in murine leukemia L1210/R71 and L1210/0 cells; type: functional, Mus musculus
[13] = octanol/water, pH 7.4

Compound | Log CR [1] | logD [2] | other results
Nc1ncn([C@@H]2O[C@H](CO)[C@@H](O)[C@H]2O)c(=O)n1 [AZACITIDINE] | 1.54 | -2.17 | –
CO[C@H](C(=O)[C@@H](O)[C@@H](C)O)[C@@H]1Cc2cc3cc(O[C@H]4C[C@@H](O[C@H]5C[C@@H](O)[C@H](O)[C@@H](C)O5)[C@H](O)[C@@H](C)O4)c(C)c(O)c3c(O)c2C(=O)[C@H]1O[C@H]1C[C@@H](O[C@H]2C[C@@H](O[C@H]3C[C@](C)(O)[C@H](O)[C@@H](C)O3)[C@@H](O)[C@@H](C)O2)[C@H](O)[C@@H](C)O1 [PLICAMYCIN] | – | -0.25 | –
CC1(C)N=C(N)N=C(N)N1c1ccccc1 | 2.18 | -3 | –
CO[C@H](C(=O)[C@@H](O)[C@@H](C)O)[C@@H]1Cc2cc3cc(O[C@H]4C[C@@H](O[C@@H]5C[C@@H](O)[C@H](O)[C@@H](C)O5)[C@H](O)[C@@H](C)O4)c(C)c(O)c3c(O)c2C(=O)[C@H]1O[C@H]1C[C@@H](O[C@@H]2C[C@@H](O)[C@@H](O[C@@H]3C[C@](C)(O)[C@H](O)[C@@H](C)O3)[C@@H](C)O2)[C@H](O)[C@@H](C)O1 [PLICAMYCIN] | 0.66 | – | –
O=P1(N(CCCl)CCCl)NCCCO1 (configuration not stated) [CYCLOPHOSPHAMIDE ANHYDROUS] | – | 0.63 | Log sensitivity [3]: 0.52
CC1(C)N=C(N)N=C(N)N1c1cccc(COc2cccc(-c3ccccc3)c2)c1 | 1.22 | 0.69 | –
O=C(O)CCCc1ccc(N(CCCl)CCCl)cc1 [CHLORAMBUCIL] | – | 1.47 | Log CR [4]: 0.3
CC[C@]1(O)C[C@@H]2CN(CCc3c([nH]c4ccccc34)[C@@](C(=O)OC)(c3cc4c(cc3OC)N(C)[C@H]3[C@@](O)(C(=O)OC)[C@H](OC(C)=O)[C@]5(CC)C=CCN6CC[C@]43[C@@H]65)C2)C1 [VINBLASTINE] | – | – | Log CR [5]: 1.28
CC(=O)[C@H]1CC[C@H]2[C@@H]3CCC4CC(=O)CC[C@]4(C)[C@H]3CC[C@]12C (some centres not stated) | – | 3.99 | Log sensitivity [3]: 1
Nc1n[nH]c(N)n1 [GUANAZOLE] | 0.08 | -1.61 | –
COc1ccc(C[C@H](N)C(=O)N[C@H]2[C@@H](O)[C@H](n3cnc4c(N(C)C)ncnc43)O[C@@H]2CO)cc1 [PUROMYCIN] | 1.82 | 0.86 | Log CR [4]: 2.02
CC[C@H]1CN2CCc3cc(OC)c(OC)cc3[C@@H]2C[C@@H]1C[C@H]1NCCc2cc(OC)c(OC)cc21 [EMETINE] | – | 3.24 | Log CR [6]: 1.46
Nc1ccc2cc3ccc(N)cc3nc2c1 [PROFLAVINE] | – | 1.1 | Log CR [7]: 0.46; Log CR [6]: 0.6
COc1ccc(OC)c(Cc2cnc3nc(N)nc(N)c3c2C)c1 [PIRITREXIM] | – | 1.77 | Log CR [8]: 1.89
NC(=O)NO [HYDROXYUREA] | 0.3 | -1.27 | –
S=P(N1CC1)(N1CC1)N1CC1 [THIOTEPA] | – | 0.53 | Log CR [4]: 0
CC1(C)N=C(N)N=C(N)N1c1cccc(Br)c1 | 2.06 | -2.14 | –
BLEOMYCIN [listing 1 of 2 here] | – | – | Log CR [9]: 0.24; Log CR [10]: 0
CN[C@H]1CCc2cc(OC)c(OC)c(OC)c2-c2ccc(OC)c(=O)cc21 [DEMECOLCINE] | – | 1.37 | Log CR [4]: 1.2
COc1cccc2c1C(=O)c1c(O)c3c(c(O)c1C2=O)C[C@@](O)(C(=O)CO)C[C@@H]3O[C@H]1C[C@H](N)[C@H](O)[C@H](C)O1 [DOXORUBICIN] | – | 0.1 | Log CR [5]: 1.46; Log CR [4]: 1.4
Cc1c2oc3c(C)ccc(C(=O)N[C@@H]4C(=O)N[C@H](C(C)C)C(=O)N5CCC[C@H]5C(=O)N(C)CC(=O)N(C)[C@@H](C(C)C)C(=O)O[C@@H]4C)c3nc-2c(C(=O)N[C@@H]2C(=O)N[C@H](C(C)C)C(=O)N3CCC[C@H]3C(=O)N(C)CC(=O)N(C)[C@@H](C(C)C)C(=O)O[C@@H]2C)c(N)c1=O [DACTINOMYCIN] (I: T[dV]P[Sar][NMeV] / II: T[dV]P[Sar][NMeV]; ester I:1-I:C, II:1-II:C; linker I:N-II:N via Actinocin(1to9)) | 0.12 | 3.21 | –
CCN(CC)CCOC(=O)c1ccc(N)cc1 [PROCAINE] | – | 0.3 | Log sensitivity [11]: 0.4
CC(C)NCC(O)COc1cccc2ccccc12 (configuration not stated) [PROPRANOLOL] | – | – | Log sensitivity [11]: 0.7
C[C@]12CC[C@H]3[C@@H](CCC4=CC(=O)CC[C@@]43C)[C@@H]1CC[C@@H]2C(=O)CO [DESOXYCORTICOSTERONE] | – | 3.08 | Log sensitivity [3]: 1
CN(Cc1cnc2nc(N)nc(N)c2n1)c1ccc(C(=O)N[C@@H](CCC(=O)O)C(=O)O)cc1 [METHOTREXATE] | – | -2.52 | Log CR [7]: 0.04; Log CR [12]: 2.55
CC[C@H]1OC(=O)[C@H](C)[C@@H](O[C@H]2C[C@@](C)(OC)[C@@H](O)[C@H](C)O2)[C@H](C)[C@@H](O[C@@H]2O[C@H](C)C[C@H](N(C)C)[C@H]2O)[C@](C)(O)C[C@@H](C)C(=O)[C@H](C)[C@@H](O)[C@]1(C)O [ERYTHROMYCIN] | – | 1.26 | Log CR [4]: 0.7

Compound | Log CR [1] | logD [2] | other results
CC[C@]1(O)C[C@H]2CN(CCc3c([nH]c4ccccc34)[C@@](C(=O)OC)(c3cc4c(cc3OC)N(C=O)[C@H]3[C@@](O)(C(=O)OC)[C@H](OC(C)=O)[C@]5(CC)C=CCN6CC[C@]43[C@@H]65)C2)C1 [VINCRISTINE] | – | 2.57 | Log CR [5]: 2.76
COc1cc(NCc2ccc3nc(N)nc(N)c3c2C)cc(OC)c1OC [TRIMETREXATE] | – | 0.84 | Log CR [8]: 1.75
C[N+]1(C)CCC(OC(=O)C(c2ccccc2)c2ccccc2)CC1.[I-] [4-DAMP] | 1.63 | 2.64 | –
CC(C)[C@@H]1NC(=O)[C@H](C)OC(=O)[C@@H](C(C)C)NC(=O)[C@@H](C(C)C)OC(=O)[C@H](C(C)C)NC(=O)[C@H](C)OC(=O)[C@@H](C(C)C)NC(=O)[C@@H](C(C)C)OC(=O)[C@H](C(C)C)NC(=O)[C@H](C)OC(=O)[C@@H](C(C)C)NC(=O)[C@@H](C(C)C)OC1=O [VALINOMYCIN] | 0.59 | 3.24 | –
CC1(C)N=C(N)N=C(N)N1c1cccc(C(N)=O)c1 | 1.85 | – | logD [13]: -4.49
CC/C(=C(\c1ccccc1)c1ccc(OCCN(C)C)cc1)c1ccccc1 [TAMOXIFEN] | 0.59 | – | –
CC1(C)N=C(N)N=C(N)N1c1cccc(O)c1 | 1.86 | -3.67 | –
COc1cc2cc(c1Cl)N(C)C(=O)C[C@H](OC(=O)[C@H](C)N(C)C(C)=O)[C@]1(C)O[C@H]1[C@H](C)[C@@H]1C[C@@](O)(NC(=O)O1)[C@H](OC)/C=C/C=C(\C)C2 [MAYTANSINE] | 1.23 | – | Log CR [5]: 2.85
CCCCNc1ccc(C(=O)OCCN(C)C)cc1 [TETRACAINE] | – | – | logD [13]: 1; Log sensitivity [11]: 0.7
C=C1[C@@H](C)[C@H]2[C@H](Cc3ccccc3)NC(=O)[C@]23OC(=O)/C=C/[C@H](O)CCC[C@@H](C)C/C=C/[C@H]3[C@@H]1O [CYTOCHALASIN B] | – | 3.37 | Log CR [4]: 1.04
C[n+]1c2cc(N)ccc2cc2ccc(N)cc21.[Cl-] [EUFLAVINE] | – | 1.6 | Log CR [6]: 0.84
CCCC[N+](CCCC)(CCCC)CCCC.[Br-] [TETRABUTYLAMMONIUM BROMIDE] | – | -3 | Log sensitivity [3]: -0.84
CC(=O)c1cccc(N2C(N)=NC(N)=NC2(C)C)c1 | 2.2 | -3.55 | –
COc1cc2c(c(OC)c1OC)-c1ccc(OC)c(=O)cc1[C@@H](NC(C)=O)CC2 [COLCHICINE] | – | 1.03 | Log CR [5]: 1.08; Log CR [4]: 2.26
COc1cccc2c1C(=O)c1c(O)c3c(c(O)c1C2=O)C[C@@](O)(C(C)=O)C[C@@H]3O[C@H]1C[C@H](N)[C@H](O)[C@H](C)O1 [DAUNORUBICIN] | – | – | Log CR [5]: 1.2
O=c1[nH]cc(F)c(=O)[nH]1 [FLUOROURACIL] | -0.04 | -0.89 | Log CR [4]: 0
Cc1nc(N)nc(N)c1-c1ccc(Cl)c(Cl)c1 [METOPRINE] | – | 2.56 | Log CR [8]: 1.7
Sc1ncnc2nc[nH]c12 [MERCAPTOPURINE ANHYDROUS] | – | 0.01 | Log CR [7]: -0.3; Log CR [8]: 0.6
CCc1nc(N)nc(N)c1-c1ccc(Cl)c(Cl)c1 [ETOPRINE] | – | 2.93 | Log CR [12]: 1.69
O=[N+]([O-])c1cccc2ccc[n+]([O-])c12 | – | 1.02 | –
N[C@@H](Cc1ccc(N(CCCl)CCCl)cc1)C(=O)O | – | -0.52 | Log CR [4]: 1.18
CC[C@]1(O)C[C@@H]2CN(CCc3c([nH]c4ccccc34)[C@@](C(=O)OC)(c3cc4c(cc3OC)N(C)[C@H]3[C@@](O)(C(N)=O)[C@H](O)[C@]5(CC)C=CCN6CC[C@]43[C@@H]65)C2)C1 [VINDESINE] | – | 0.67 | Log CR [5]: 3
CCCCCCCCCCCCc1cccc(N2C(N)=NC(N)=NC2(C)C)c1 | 0.52 | 3.41 | –
CC[n+]1c(-c2ccccc2)c2cc(N)ccc2c2ccc(N)cc21.[Br-] [HOMIDIUM BROMIDE] | – | 1.15 | Log CR [4]: 1.04
O=c1[nH]c(=O)n([C@H]2C[C@H](O)[C@@H](CO)O2)cc1Br [BROXURIDINE] | – | -0.29 | –
BLEOMYCIN [listing 2 of 2 here] | – | – | logD [13]: -2.38
